Laboratory results published in patent US20240376094A2, “SELECTIVE BCL-XL PROTAC COMPOUNDS AND METHODS OF USE” (Les Laboratoires Servier, priority 2021, published 2024).

Key:
[1] = test system: EBC-1 lung cancer cell line; assay: EBC-1 cell proliferation, CellTiter-Glo assay; type: cell-based; details: Homo sapiens, 120 h; Ebc-1 cell viability, CTG assay, 5 days of treatment; read-out: CTG 5 day Ebc1 GI50
Experimental: (§1) The ability of the BCL-xL degrader low molecular weight compounds to inhibit cell proliferation and survival was assessed using the Promega CellTiter-Glo® proliferation assay on the EBC-1 lung cancer cell line (RCB1965, obtained from RIKEN.) The cells were cultured in media that is optimal for their growth at 5% CO2, 37° C. in a tissue culture incubator. Prior to seeding for the proliferation assay, the cells were split at least 2 days before the assay to ensure optimal growth density. On the day of seeding, cells were lifted off tissue culture flasks using 0.25% trypsin. Cell viability and cell density were determined using a cell counter (Vi-Cell XR Cell Viability Analyzer, Beckman Coulter). Cells with higher than 85% viability were seeded in white clear bottom 384-well plates (Greiner cat #781098) at a density of 1000 cells per well in 50 μL of standard growth media. Plates were incubated at 37° C. overnight in a tissue culture incubator.
The BCL-xL degrader low molecular weight compounds were prepared to desired concentrations. A series of 10 dilutions were made for each prepared compound. The prepared compounds were then added to the cells resulting in final concentrations of 0.508 nM-10 μM. An acoustic transfer device (Echo555, Beckman Coulter) was used to add the compounds to the cells. Each treatment was tested in triplicate assay plates. Plates were incubated at 37° C. overnight or for 5 days in a tissue culture incubator. The ability of the compounds to inhibit cell proliferation and survival was assessed using the Promega CellTiter-Glo® proliferation assay. Plates were incubated at room temperature for 20 minutes to stabilize luminescent signals prior to reading using a multimode plate reader (PHERAstar FSX Microplate Reader, BMG Labtech).
To evaluate the effect of the compound treatments, luminescent counts of untreated cells were taken the day after seeding (Day 0 readings), and after 5 days of treatment (Day 5 readings). The Day 5 readings of the untreated cells were compared to the Day 0 readings. Assays with at least one cell doubling during the incubation period were considered valid. To evaluate the effect of the drug treatments, luminescent counts from wells containing untreated cells (100% viability) were used to normalize treated samples. The concentrations of treatment required to inhibit 50% of cell growth or survival ([…]) were calculated using a four parameter logistic regression equation.

HiBiT-tagged BCL-xL = target: T1, HiBiT-tagged BCL-xL (Homo sapiens, UniProt Q07817); assay: NCI-H1650 BCL-xL protein levels, Nano-Glo HiBiT Lytic Detection; type: cell-based; details: NCI-H1650 expressing HiBiT-tagged BCL-xL, overnight incubation, read-out: Bcl-xl HIBIT NCIH1650 DC50
T1 construct: expressed in transfected cells; host or cells: NCI-H1650 (ATCC No. CRL-5883), engineered HiBiT cell line
Experimental: as §1, with “degrade BCL-xL protein” for “inhibit cell proliferation and survival”, “Nano-Glo® HiBiT Lytic Detection System. The NCI-H1650 (ATCC No. CRL-5883) was engineered to express HiBiT-tagged BCL-xL. The NCI-H1650 HiBiT” for “CellTiter-Glo® proliferation assay on the EBC-1 lung cancer”, “was” for “(RCB1965, obtained from RIKEN.) The cells were”, “protein level” for “proliferation”, “5000” for “1000”, “30” for “50”
The BCL-xL degrader low molecular weight compounds were prepared to desired concentrations. A series of 10 dilutions were made for each prepared compound. The prepared compounds were then added to the cells resulting in final concentrations of 0.508 nM-10 μM. An acoustic transfer device (Echo555, Beckman Coulter) was used to add the compounds to the cells. Each treatment was tested in triplicate assay plates. Plates were incubated at 37° C. overnight in a tissue culture incubator.
BCL-xL degradation was assessed through the addition of 30 μL of Nano-Glo® HiBiT Lytic Reagent (Promega, cat #N3040), a reagent which lyses cells and contains a furimazine substrate and the large subunit (LgBiT) used in NanoLuc® Binary Technology. The LgBiT subunit having high affinity to a HiBiT-tagged protein will bind HiBiT, if present, resulting in complex formation of a luminescent NanoBiT® enzyme. This reaction will emit a luminescent signal proportional to the amount of HiBiT-tagged BCL-xL present in the cell lysate. Plates were incubated at room temperature for 20 minutes to stabilize luminescent signals prior to reading using a luminescence reader (PHERAstar FSX Microplate Reader, BMG Labtech).
To evaluate the effect of the drug treatments, luminescent counts from wells containing untreated cells (100% HiBiT-tagged BCL-xL) were used to normalize treated samples. The concentrations of treatment required to inhibit 50% were calculated using a four parameter logistic regression equation.

T1 sequence (Q07817 whole entry): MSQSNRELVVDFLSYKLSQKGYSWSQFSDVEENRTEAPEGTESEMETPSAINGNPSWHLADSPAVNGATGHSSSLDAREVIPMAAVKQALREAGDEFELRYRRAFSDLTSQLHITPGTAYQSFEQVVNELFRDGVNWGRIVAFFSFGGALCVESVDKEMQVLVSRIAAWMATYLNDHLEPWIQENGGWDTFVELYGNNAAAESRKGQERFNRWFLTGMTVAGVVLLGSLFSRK

GI50 [1] [nM]	DC50 (HiBiT-tagged BCL-xL) [nM]	Structure (SMILES)
73	> 1670	Cc1ncsc1-c1ccc([C@H](C)NC(=O)[C@@H]2C[C@@H](O)CN2C(=O)[C@@H](NC(=O)[C@H]2CCCN(C(=O)c3nc(N4CCCc5c4nnc(Nc4nc6ccccc6s4)c5C)ccc3-c3cnn(CC45CC6(C)CC(C)(C4)CC(OCCN4CCCC4)(C6)C5)c3C)C2)C(C)(C)C)cc1 [Example 168, (S)-1-(6-(3-(benzo[d]thiazol-2-ylamino)-4-methyl-6,7-dihydropyrido[2,3-c]pyridazin-8(5H)-yl)-3-(1-(((1r,3R,5S,7R)-3,5-dimethyl-7-(2-(pyrrolidin-1-yl)ethoxy)adamantan-1-yl)methyl)-5-methyl-1H-pyrazol-4-yl)picolinoyl)-N—((S)-1-((2S,4R)-4-hydroxy-2-(((S)-1-(4-(4-methylthiazol-5-yl)phenyl)ethyl)carbamoyl)pyrrolidin-1-yl)-3,3-dimethyl-1-oxobutan-2-yl)piperidine-3-carboxamide]
6	> 1670	Cc1ncsc1-c1ccc([C@H](C)NC(=O)[C@@H]2C[C@@H](O)CN2C(=O)[C@@H](NC(=O)[C@@H]2CCCN(C(=O)c3nc(N4CCCc5c4nnc(Nc4nc6ccccc6s4)c5C)ccc3-c3cnn(CC45CC6(C)CC(C)(C4)CC(OCCN4CCCC4)(C6)C5)c3C)C2)C(C)(C)C)cc1 [Example 169, (R)-1-(6-(3-(benzo[d]thiazol-2-ylamino)-4-methyl-6,7-dihydropyrido[2,3-c]pyridazin-8(5H)-yl)-3-(1-(((1r,3R,5S,7S)-3,5-dimethyl-7-(2-(pyrrolidin-1-yl)ethoxy)adamantan-1-yl)methyl)-5-methyl-1H-pyrazol-4-yl)picolinoyl)-N—((S)-1-((2S,4R)-4-hydroxy-2-(((S)-1-(4-(4-methylthiazol-5-yl)phenyl)ethyl)carbamoyl)pyrrolidin-1-yl)-3,3-dimethyl-1-oxobutan-2-yl)piperidine-3-carboxamide]
13	1	Cc1ncsc1-c1ccc([C@H](C)NC(=O)[C@@H]2C[C@@H](O)CN2C(=O)[C@@H](NC(=O)CC2CC3(C2)CN(C(=O)c2nc(N4CCCc5c4nnc(Nc4nc6ccccc6s4)c5C)ccc2-c2cnn(CC45CC6(C)CC(C)(C4)CC(OCCN4CCCC4)(C6)C5)c2C)C3)C(C)(C)C)cc1 [Example 170, (2S,4R)-1-((S)-2-(2-(2-(6-(3-(benzo[d]thiazol-2-ylamino)-4-methyl-6,7-dihydropyrido[2,3-c]pyridazin-8(5H)-yl)-3-(1-(((1r,3R,5S,7s)-3,5-dimethyl-7-(2-(pyrrolidin-1-yl)ethoxy)adamantan-1-yl)methyl)-5-methyl-1H-pyrazol-4-yl)picolinoyl)-2-azaspiro [3.3]heptan-6-yl)acetamido)-3,3-dimethylbutanoyl)-4-hydroxy-N—((S)-1-(4-(4-methylthiazol-5-yl)phenyl)ethyl)pyrrolidine-2-carboxamide]
121	> 1670	Cc1ncsc1-c1ccc([C@H](C)NC(=O)[C@@H]2C[C@@H](O)CN2C(=O)[C@@H](NC(=O)CCC(=O)N2CCC[C@@H](NC(=O)c3nc(N4CCCc5c4nnc(Nc4nc6ccccc6s4)c5C)ccc3-c3cnn(CC45CC6(C)CC(C)(C4)CC(OCCN4CCCC4)(C6)C5)c3C)C2)C(C)(C)C)cc1 [Example 171]

Further lines, the compound ahead of its results:

Structure (SMILES)	GI50 [1] [nM]	DC50 (HiBiT-tagged BCL-xL) [nM]
Cc1ncsc1-c1ccc([C@H](C)NC(=O)[C@@H]2C[C@@H](O)CN2C(=O)[C@@H](NC(=O)C[C@H]2CC[C@H](NC(=O)c3nc(N4CCCc5c4nnc(Nc4nc6ccccc6s4)c5C)ccc3-c3cnn(CC45CC6(C)CC(C)(C4)CC(OCCN4CCCC4)(C6)C5)c3C)CC2)C(C)(C)C)cc1 [Example 164, 6-(3-(benzo[d]thiazol-2-ylamino)-4-methyl-6,7-dihydropyrido[2,3-c]pyridazin-8(5H)-yl)-3-(1-(((1r,3R,5S,7s)-3,5-dimethyl-7-(2-(pyrrolidin-1-yl)ethoxy)adamantan-1-yl)methyl)-5-methyl-1H-pyrazol-4-yl)-N-((1S,4R)-4-(2-(((S)-1-((2S,4R)-4-hydroxy-2-(((S)-1-(4-(4-methylthiazol-5-yl)phenyl)ethyl)carbamoyl)pyrrolidin-1-yl)-3,3-dimethyl-1-oxobutan-2-yl)amino)-2-oxoethyl)cyclohexyl)picolinamide]	35	2
Cc1ncsc1-c1ccc([C@H](C)NC(=O)[C@@H]2C[C@@H](O)CN2C(=O)[C@@H](NC(=O)[C@H]2C[C@H](NC(=O)c3nc(N4CCCc5c4nnc(Nc4nc6ccccc6s4)c5C)ccc3-c3cnn(CC45CC6(C)CC(C)(C4)CC(OCCN4CCCC4)(C6)C5)c3C)C2)C(C)(C)C)cc1 [Example 165, 6-(3-(benzo[d]thiazol-2-ylamino)-4-methyl-6,7-dihydropyrido[2,3-c]pyridazin-8(5H)-yl)-3-(1-(((1r,3R,5S,7s)-3,5-dimethyl-7-(2-(pyrrolidin-1-yl)ethoxy)adamantan-1-yl)methyl)-5-methyl-1H-pyrazol-4-yl)-N-((1S,3R)-3-(((S)-1-((2S,4R)-4-hydroxy-2-(((S)-1-(4-(4-methylthiazol-5-yl)phenyl)ethyl)carbamoyl)pyrrolidin-1-yl)-3,3-dimethyl-1-oxobutan-2-yl)carbamoyl)cyclobutyl)picolinamide]	35	> 1670
Cc1ncsc1-c1ccc([C@H](C)NC(=O)[C@@H]2C[C@@H](O)CN2C(=O)[C@@H](NC(=O)COC2CCN(C(=O)c3nc(N4CCCc5c4nnc(Nc4nc6ccccc6s4)c5C)ccc3-c3cnn(CC45CC6(C)CC(C)(C4)CC(OCCN4CCCC4)(C6)C5)c3C)CC2)C(C)(C)C)cc1 [Example 166, (2S,4R)-1-((S)-2-(2-((1-(6-(3-(benzo[d]thiazol-2-ylamino)-4-methyl-6,7-dihydropyrido[2,3-c]pyridazin-8(5H)-yl)-3-(1-(((1r,3R,5S,7s)-3,5-dimethyl-7-(2-(pyrrolidin-1-yl)ethoxy)adamantan-1-yl)methyl)-5-methyl-1H-pyrazol-4-yl)picolinoyl)piperidin-4-yl)oxy)acetamido)-3,3-dimethylbutanoyl)-4-hydroxy-N—((S)-1-(4-(4-methylthiazol-5-yl)phenyl)ethyl)pyrrolidine-2-carboxamide]	68	1
Cc1ncsc1-c1ccc([C@H](C)NC(=O)[C@@H]2C[C@@H](O)CN2C(=O)[C@@H](NC(=O)CCOC2CCN(C(=O)c3nc(N4CCCc5c4nnc(Nc4nc6ccccc6s4)c5C)ccc3-c3cnn(CC45CC6(C)CC(C)(C4)CC(OCCN4CCCC4)(C6)C5)c3C)CC2)C(C)(C)C)cc1 [Example 167, (2S,4R)-1-((S)-2-(3-((1-(6-(3-(benzo[d]thiazol-2-ylamino)-4-methyl-6,7-dihydropyrido[2,3-c]pyridazin-8(5H)-yl)-3-(1-(((1r,3R,5S,7s)-3,5-dimethyl-7-(2-(pyrrolidin-1-yl)ethoxy)adamantan-1-yl)methyl)-5-methyl-1H-pyrazol-4-yl)picolinoyl)piperidin-4-yl)oxy)propanamido)-3,3-dimethylbutanoyl)-4-hydroxy-N—((S)-1-(4-(4-methylthiazol-5-yl)phenyl)ethyl)pyrrolidine-2-carboxamide]	136	2
